Counter-ions that a name gives are not always drawn. Like-named read-outs stand apart in the source and are kept apart here.
How the values were obtained:
[1] = plasma free fraction (centrifugal filter units); format: in vitro ADME; conditions: human plasma, n=3
Description: The method used was modified from Parsey et al.. 1 mL of heparinized plasma (rat and human, respectively) were mixed with 10–50 μL [^18F]FE@SNAP. 200 μL aliquots were pipetted into the centrifugal filter units and the total radioactivity was measured in a Gamma Counter. After the centrifugation step (2.000 × g, 50 min), 50 μL of the obtained filtrate was back-measured for radioactivity. For the determination of the plasma free fraction (f1), the ratio of filtrate to total activity concentration was calculated.

hMCHR1 = biological target: T1, hMCHR1 (Homo sapiens, UniProt Q99705); experiment: saturation binding of [^18F]FE@SNAP on CHO-K1 cell membranes expressing hMCHR1; conditions: CHO-K1 membranes expressing hMCHR1, room temperature, 120 min, n=2
T1 construct: purchased PerkinElmer; host or cells: CHO-K1 cell membranes (recombinant expression)
T1 sequence (Q99705 whole entry): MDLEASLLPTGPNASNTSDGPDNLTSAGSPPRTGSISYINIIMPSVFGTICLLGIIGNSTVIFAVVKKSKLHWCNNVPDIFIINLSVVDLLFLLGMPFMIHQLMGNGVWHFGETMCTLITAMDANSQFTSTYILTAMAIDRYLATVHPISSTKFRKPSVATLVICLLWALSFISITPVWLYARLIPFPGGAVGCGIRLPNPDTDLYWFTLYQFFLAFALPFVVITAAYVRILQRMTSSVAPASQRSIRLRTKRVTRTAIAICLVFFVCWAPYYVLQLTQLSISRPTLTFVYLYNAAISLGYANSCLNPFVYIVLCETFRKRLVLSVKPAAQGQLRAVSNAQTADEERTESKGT
Description: The method used was conducted according to Mashiko et al. with minor modifications. CHO-K1 cell membranes expressing hMCHR1 (10 μg/mL) were dissolved in 500 μL and a 50 mM Tris buffer (pH 7.4) (containing 10 mM MgCl2, 2 mM EDTA, 0.1% bacitracin and 0.2% BSA). For the evaluation of the equilibrium dissociation constant (Kd) of [^18F]FE@SNAP, several concentrations (0–500 nM) of [^18F]FE@SNAP were added. The membranes were incubated in vials at room temperature for 120 min. Bound and free fractions of the radioligand were separated by centrifugation at 40.000 × g for 20 min. The supernatants were removed into new vials. The pellets were washed with 800 μL of the ice cold Tris buffer, which was added to the supernatant, and the pellets were dissolved in 1300 μL of the Tris buffer. The radioactivity in the vials was measured by a Gamma Counter. The Kd values were calculated by using GraphPad Prism software Version 5.0 (La Jolla, CA, USA).

[2] = plasma stability in human plasma; format: in vitro ADME; conditions: 37°C, pH 7.4, n=6
Description: (§1) The stability of [^18F]FE@SNAP in human and rat plasma was determined according to Nics et al.. 1800 μL of lithium-heparinized plasma (rat and human, respectively) were pre-incubated under physiological conditions (PBS, pH 7.4, 37°C) in a shaking incubator for 5 minutes. 36 μL [^18F]FE@SNAP (corresponding to 2% ethanol v/v in the total volume) were added and the plasma vial was vortexed for at least 10 seconds. After defined points in time (0 and 120 min), 500 μL of the incubation-mixture were added to a preconditioned (with 5 mL methanol followed by 5 mL water) SPE-cartridge (Oasis). The cartridge was then eluted into a collection tube, washed with 5 mL of 5% methanol in water (v/v) into a second tube, and eluted with 3 mL of THF into a third tube. 20 μL of the eluate-solution of tube two and three were injected into the analytical HPLC (mobile phase: (water/acetic acid 97.5/2.5 v/v; 2.5 g/L ammonium acetate; pH 3.5)/acetonitrile 70/30 v/v; flow: 2mL/min).

[3] = plasma stability in rat plasma; format: in vitro ADME; conditions: for degradation in rat plasma (in words): after 120 min
Description: as §1

HPLC-based logD analysis = format: physicochemical; conditions: ODP-50 column, phosphate buffer pH 7.4, n=3
Description: LogD values were determined using an HPLC-based assay according to Donovan and Pescatore. A cocktail of two internal standards (toluene and triphenylene) with known logD and k′ values and FE@SNAP in methanol were injected into a short polymeric ODP-50 column. A linear gradient from 10% methanol/90% phosphate buffer (pH 7.4) to 100% methanol within 9.4 min at a flow rate of 1.5 mL/min was applied. Detection was performed at 260 nm and 285 nm.

[4] = tested on: CYP450, rat liver microsomes; experiment: stability against liver microsomes (CYP450), rat; format: in vitro ADME; conditions: after 60 min, n=4
Description: (§2) The method used was described by Nics et al.. Briefly, liver microsomes (pooled from human or rat origin) were pre-incubated under physiological conditions (PBS, pH 7.4, 37°C) with a NADPH-generating system (solution-A: NADP+, glucose-6-phosphate and magnesium-chloride in H2O and solution-B: glucose-6-phosphate dehydrogenase in sodium citrate) for 5 min. 6 μL of [^18F]FE@SNAP, which correspond to 2% ethanol (v/v) in the total volume, were added. Enzymatic reactions were stopped after defined points in time (0, 2, 5, 10, 20, 40, and 60 min) by adding the same amount of ice-cold acetonitrile/methanol (10:1). The mixtures were vortexed, followed by a centrifugation step (23.000 × g, 5 min). Aliquots of the obtained supernatant were analyzed by an analytical HPLC (for conditions see Plasma Stability).

[5] = tested on: CYP450, human liver microsomes; experiment: stability against liver microsomes (CYP450), human; format: in vitro ADME; conditions: after 60 min, n=4
Description: as §2

[6] = design: method as in PMID 23829932; conditions: evaluated previously; cited from earlier work
hMCHR2 = biological target: T2, hMCHR2 (Homo sapiens, UniProt Q969V1); experiment: preliminary competition binding against [^125I]MCH on hMCHR2
T2 construct: purchased PerkinElmer; host or cells: CHO-K1 cell membranes (recombinant expression)
T2 sequence (Q969V1 whole entry): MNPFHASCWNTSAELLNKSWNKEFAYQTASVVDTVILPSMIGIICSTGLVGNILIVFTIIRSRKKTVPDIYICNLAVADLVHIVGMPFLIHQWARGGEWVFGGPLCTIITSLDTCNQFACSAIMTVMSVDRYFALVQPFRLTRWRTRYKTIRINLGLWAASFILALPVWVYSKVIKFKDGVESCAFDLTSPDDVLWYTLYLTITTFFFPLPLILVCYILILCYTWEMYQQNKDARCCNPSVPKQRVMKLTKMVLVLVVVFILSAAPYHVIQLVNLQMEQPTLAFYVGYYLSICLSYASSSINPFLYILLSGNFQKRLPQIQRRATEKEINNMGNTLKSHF
From the text: [^18F]fluoride was produced via the ^18O(p,n)^18F reaction in a GE PET trace cyclotron (16.5-MeV protons; GE Medical Systems, Uppsala, Sweden). H2^18O (HYOX18; > 98%) was purchased from Rotem Europe (Leipzig, Germany). Typical beam currents were 48–52 μA and irradiation was stopped as soon as the desired activity level was reached (approx. 25–30 GBq). Anion-exchange cartridges (PS-HCO3) for [^18F]fluoride trapping were obtained from Macherey-Nagel (Dueren, Germany). The precursor compound (Tos@SNAP; 4, Fig. 1) and the reference standard (FE@SNAP) were synthesized in cooperation with the Department of Drug and Natural Product Synthesis of the University of Vienna (Austria). Solid phase extraction (SPE) cartridges SepPak® C18-plus and the Oasis HLB 6cc Vac (200 mg) were purchased from Waters (Waters® Associates, Milford, MA, USA). Sterile water Ecotainer® and 0.9% saline solution were purchased from B. Braun (Melsungen, Germany). 3% saline solution was obtained from a local pharmacy (Landesapotheke Salzburg, Austria). A 125 mM phosphate buffer was prepared by dissolving 0.224g sodium dihydrogen phosphate-monohydrate and 1.935g disodium hydrogen phosphate-dihydrate (both from Merck, Darmstadt, Germany) in 100 mL of sterile water. Phosphate-buffered saline (PBS) concentrate (10:1) was obtained from Morphisto (Frankfurt, Germany). […]

porcine carboxylesterase = experiment: stability against carboxylesterase (Michaelis-Menten kinetics); format: in vitro ADME; conditions: porcine carboxylesterase 80 I.U., PBS pH 7.4, 37°C
Description: The method used was slightly modified from Nics et al.. Incubations of different amounts (10, 30, 50, 70, 100, 200 μg/ml) of FE@SNAP were accomplished with a constant quantity of 80 International Units (I.U.) of porcine carboxylesterase under physiological conditions (PBS, pH 7.4, 37°C). The use of selected concentrations of FE@SNAP was based on an optimal choice to create Michaelis-Menten kinetics (MMK). 35 μl of the incubation-mixture were stopped after defined points in time (0, 60, 120, 180, and 240 min) by adding the same amount of ice-cold acetonitrile/methanol (10:1) and then vortexed. After centrifugation of the reaction mixtures (23.000 × g, 5 min), 20 μL of the obtained supernatant were analyzed by analytical HPLC (for conditions see Plasma Stability). The MMK of FE@SNAP was calculated by using GraphPad Prism software Version 5.0 (La Jolla, CA, USA).

human MCHR1 (hMCHR1) = biological target: human MCHR1 (hMCHR1); design: method as in PMID 12118247; conditions: Cos-7 cells expressing the human MCHR1; cited from earlier work
[7] = design: method as in PMID 10908045; conditions: cited from earlier work

COCC1=C(C(=O)OCC[18F])[C@H](c2ccc(F)c(F)c2)N(C(=O)NCCCN2CCC(c3cccc(NC(C)=O)c3)CC2)C(=O)N1 [[^18F]FE@SNAP]
fraction unbound ([1]; heparinized plasma, read-out: plasma free fraction (f1)): 0.126 ± 0.002
Kd (hMCHR1): 2.9 nM
degradation in human plasma ([2]; after 0 min): 0.48 ± 0.5%
degradation in human plasma ([2]; after 120 min): 3.87 ± 3.9%
degradation in rat plasma (in words) [3]: completely metabolized
degradation in rat plasma ([3]; initially (0 min), 37°C, pH 7.4, n=11): 32.44 ± 33.5%
chromatographic logD (HPLC-based logD analysis; polymeric ODP-50 HPLC column): 3.83
enzymatic degradation by CYP450 [4]: 2.59 ± 1.8%
enzymatic degradation by CYP450 [5]: 5.39 ± 1.6%

COCC1=C(C(=O)O[11CH3])[C@H](c2ccc(F)c(F)c2)N(C(=O)NCCCN2CCC(c3cccc(NC(C)=O)c3)CC2)C(=O)N1 [[^11C]SNAP-7941]
degradation in rat plasma (in words) [6]: rapid enzymatic degradation

COCC1=C(C(=O)OCCF)C(c2ccc(F)c(F)c2)N(C(=O)NCCCN2CCC(c3cccc(NC(C)=O)c3)CC2)C(=O)N1 (stereo not drawn) [FE@SNAP]
plasma free fraction (f1) [1]: 12.6 ± 0.2%
Ki (hMCHR2): > 1000 nM
degradation in rat plasma (in words) [3]: complete
logD (HPLC-based logD analysis): 3.83 ± 0.1
limiting velocity (Vmax) (porcine carboxylesterase): 0.874 µM/min
Km (porcine carboxylesterase; read-out: Michaelis-Menten constant (Km)): 347 µM

COCC1=C(C(=O)OC)[C@H](c2ccc(F)c(F)c2)N(C(=O)NCCCN2CCC(c3cccc(NC(C)=O)c3)CC2)C(=O)N1 [SNAP-7941, (+)-methyl (4S)-3-{[(3-{4-[3-(acetylamino)phenyl]-1-piperidinyl}propyl)amino]carbonyl}-4-(3,4-difluorophenyl)-6-(methoxymethyl)-2-oxo-1,2,3,4-tetrahydro-5-pyrimidinecarboxylate hydrochloride]
Kd (human MCHR1 (hMCHR1)): 0.18 nM

COc1ccccc1N1CCN(CCN(c2ccccn2)[11C](=O)C2CCCCC2)CC1 [[carbonyl-^11C]WAY-100635]
plasma free fraction [7]: 5.8 ± 0.2%

— publication PMC3791928, “Preparation and First Preclinical Evaluation of [^18F]FE@SNAP: A Potential PET Tracer for the Melanin-Concentrating Hormone Receptor-1 (MCHR1)” (Scientia Pharmaceutica, 2013)
